Each molecule was assayed on AEA cellular uptake (U937 cells) (assay: [3H]-AEA cellular uptake inhibition in U937 cells). Details: Homo sapiens, U-937, U937 cells, final 100 nM AEA with 0.5 nM [3H]-AEA, 15 min at 37° C.; read-out: AEA uptake IC50.
Assay type: cell-based
Protocol: [^3H]-AEA Cellular Uptake
Screening for AEA cellular uptake inhibition was performed in a semi-automated procedure: Pipetting and washing steps were performed by a Biomek3000 laboratory workstation. First, required amounts of U937 cells were centrifuged at 100×g for 5 min and resuspended in RPMI (37° C.) to a final concentration of 2×10^6 cells/mL. Then, 250 μL of cell suspension (0.5×10^6 cells per sample) were transferred into AquaSil™ silanized glass vials (Chromacol 1.1-MTV) in 96-well format. After addition of 5 μL vehicle (DMSO) or compounds the cells were incubated at 37° C. for 15 min. As positive controls OMDM-2 and UCM707 were used at 10 μM in each run. The ETI-T compounds were measured at up to 7 concentrations in triplicates from 100 pM-100 μM. After pre-incubation, a mixture of 0.5 nM [ethanolamine-1-^3H]-AEA, (60 Ci/mmol) and 99.5 nM of cold AEA (final 100 nM) was added and samples were incubated at 37° C. for another 15 min. The reaction was stopped by rapid filtration over UniFilter-96 GF/C filters (PerkinElmer) pre-soaked with PBS 0.25% BSA. Cells were washed three times with 100 μL ice-cold PBS buffer containing 1% fatty acid free BSA. After drying, 45 μL MicroScint 20 scintillation cocktail (PerkinElmer, Waltham, Mass., US) was added to the wells and the plate was sealed. Radioactivity was measured by liquid scintillation counting on a PerkinElmer Wallac Trilux MicroBeta 1450 during 2 min. Non-specific binding of [^3H]AEA (100 nM) to the glass vials was never higher than 10%. IC50 values were calculated by GraphPad® by non-linear regression using the built-in log(inhibitor) vs. response-variable slope (four parameters) function.

SMILES | IC50
O=C1/C(=C/c2ccc3[nH]cnc3c2)S/C(=N\CCc2ccccc2)N1c1ccccc1 [04_U_N, (2Z,5Z)-5-((1H-benzo[d]imidazol-5-yl)methylene)-2-(phenethylimino)-3-phenylthiazolidin-4-one] | 1400 nM
COCc1cccc(/C=C2\S/C(=N\Cc3ccccc3)N(CCCc3ccccc3)C2=O)c1 [15_C_K, (2Z,5Z)-5-(3-(methoxymethyl)benzylidene)-2-(benzylimino)-3-(3-phenylpropyl)thiazolidin-4-one] | 692 nM
O=C1/C(=C/c2ccc(CO)cc2)S/C(=N\Cc2ccccc2)N1CCc1ccccc1 [15_C_O, (2Z,5Z)-5-(4-(hydroxymethyl)benzylidene)-2-(benzylimino)-3-phenethylthiazolidin-4-one] | 1560 nM
COCc1cccc(/C=C2\S/C(=N\Cc3ccc(C(C)(C)C)cc3)N(c3ccccc3)C2=O)c1 [15_R_N, (2Z,5Z)-5-(3-(methoxymethyl)benzylidene)-2-(4-tert-butylbenzylimino)-3-phenylthiazolidin-4-one] | > 10000 nM
COCc1cccc(/C=C2\S/C(=N\Cc3ccccc3Cl)N(c3ccccc3)C2=O)c1 [15_T_N, (2Z,5Z)-2-(2-chlorobenzylimino)-5-(3-(methoxymethyl)benzylidene)-3-phenylthiazolidin-4-one] | 2640 nM
COCc1cccc(/C=C2\S/C(=N\CCc3ccccc3)N(c3ccccc3)C2=O)c1 [15_U_N, (2Z,5Z)-5-(3-(methoxymethyl)benzylidene)-2-(phenethylimino)-3-phenylthiazolidin-4-one] | 15600 nM
CCCCCCCCCCCCN1C(=O)/C(=C/c2ccc(CO)cc2)S/C1=N\c1ccc(F)cc1 [22_B_V, (2Z,5Z)-5-(4-(hydroxymethyl)benzylidene)-2-(4-fluorophenylimino)-3-dodecylthiazolidin-4-one] | 12500 nM
O=C1/C(=C/c2ccc(CO)cc2)S/C(=N\Cc2ccccc2)N1c1ccc(F)cc1 [22_C_B, (2Z,5Z)-5-(4-(hydroxymethyl)benzylidene)-2-(benzylimino)-3-(4-fluorophenyl)thiazolidin-4-one] | 2170 nM
O=C1/C(=C/c2ccc(CO)cc2)S/C(=N\Cc2ccccc2)N1Cc1ccccc1 [22_C_C, (2Z,5Z)-5-(4-(hydroxymethyl)benzylidene)-3-benzyl-2-(benzylimino)thiazolidin-4-one] | 10400 nM
COc1ccc(N2C(=O)/C(=C/c3ccc(CO)cc3)S/C2=N\Cc2ccccc2)cc1 [22_C_F, (2Z,5Z)-5-(4-(hydroxymethyl)benzylidene)-2-(benzylimino)-3-(4-methoxyphenyl)thiazolidin-4-one] | 592 nM
CCCCN1C(=O)/C(=C/c2ccc(CO)cc2)S/C1=N\Cc1ccccc1 [22_C_G, (2Z,5Z)-5-(4-(hydroxymethyl)benzylidene)-2-(benzylimino)-3-butylthiazolidin-4-one] | 1280 nM
O=C1/C(=C/c2ccc(CO)cc2)S/C(=N\Cc2ccccc2)N1c1ccccc1 [22_C_N, (2Z,5Z)-5-(4-(hydroxymethyl)benzylidene)-2-(benzylimino)-3-phenylthiazolidin-4-one] | 1660 nM
Cc1ccc(/N=C2\S/C(=C\c3ccc(CO)cc3)C(=O)N2c2ccccc2)nc1 [22_D_N, (2Z,5Z)-5-(4-(hydroxymethyl)benzylidene)-2-(5-methylpyridin-2-ylimino)-3-phenylthiazolidin-4-one] | 1450 nM
C/N=C1\S/C(=C\c2ccc(CO)cc2)C(=O)N1c1ccccc1 [22_E_N, (2Z,5Z)-5-(4-(hydroxymethyl)benzylidene)-2-(methylimino)-3-phenylthiazolidin-4-one] | > 10000 nM
O=C1/C(=C/c2ccc(CO)cc2)S/C(=N\c2ccccc2)N1Cc1ccccc1 [22_N_C, (2Z,5Z)-5-(4-(hydroxymethyl)benzylidene)-3-benzyl-2-(phenylimino)thiazolidin-4-one] | 657 nM
COc1ccc(N2C(=O)/C(=C/c3ccc(CO)cc3)S/C2=N\c2ccccc2)cc1 [22_N_F, (2Z,5Z)-5-(4-(hydroxymethyl)benzylidene)-3-(4-methoxyphenyl)-2-(phenylimino)thiazolidin-4-one] | > 10000 nM
CCCCN1C(=O)/C(=C/c2ccc(CO)cc2)S/C1=N\c1ccccc1 [22_N_G, (2Z,5Z)-5-(4-(hydroxymethyl)benzylidene)-3-butyl-2-(phenylimino)thiazolidin-4-one] | 1090 nM
O=C1/C(=C/c2ccc(CO)cc2)S/C(=N\c2ccccc2)N1Cc1ccco1 [22_N_M, (2Z,5Z)-5-(4-(hydroxymethyl)benzylidene)-3-((furan-2-yl)methyl)-2-(phenylimino)thiazolidin-4-one] | 1310 nM
O=C1/C(=C/c2ccc(CO)cc2)S/C(=N\Cc2ccc(F)cc2)N1c1ccccc1 [22_P_N, (2Z,5Z)-5-(4-(hydroxymethyl)benzylidene)-2-(4-fluorobenzylimino)-3-phenylthiazolidin-4-one] | 500 nM
COc1ccc(C/N=C2\S/C(=C\c3ccc(CO)cc3)C(=O)N2c2ccccc2)cc1 [22_Q_N, (2Z,5Z)-5-(4-(hydroxymethyl)benzylidene)-2-(4-methoxybenzylimino)-3-phenylthiazolidin-4-one] | 713 nM
CC(C)(C)c1ccc(C/N=C2\S/C(=C\c3ccc(CO)cc3)C(=O)N2c2ccccc2)cc1 [22_R_N, (2Z,5Z)-5-(4-(hydroxymethyl)benzylidene)-2-(4-tert-butylbenzylimino)-3-phenylthiazolidin-4-one] | 5180 nM
O=C1/C(=C/c2ccc(CO)cc2)S/C(=N\Cc2ccccc2Cl)N1c1ccccc1 [22_T_N, (2Z,5Z)-2-(2-chlorobenzylimino)-5-(4-(hydroxymethyl)benzylidene)-3-phenylthiazolidin-4-one] | > 10000 nM
O=C1/C(=C/c2ccc(CO)cc2)S/C(=N\CCc2ccccc2)N1c1ccccc1 [22_U_N, (2Z,5Z)-5-(4-(hydroxymethyl)benzylidene)-2-(phenethylimino)-3-phenylthiazolidin-4-one] | 812 nM
CC(C)CN1C(=O)/C(=C/c2ccccc2)S/C1=N\c1ccc(F)cc1 [23_B_X, (2Z,5Z)-2-(4-fluorophenylimino)-5-benzylidene-3-isobutylthiazolidin-4-one] | 1130 nM
CCCCN1C(=O)/C(=C/c2ccccc2)S/C1=N\Cc1ccccc1 [23_C_G, (2Z,5Z)-5-benzylidene-2-(benzylimino)-3-butylthiazolidin-4-one] | 753 nM
O=C1/C(=C/c2ccccc2)S/C(=N\Cc2ccccc2)N1CCc1ccccc1 [23_C_O, (2Z,5Z)-5-benzylidene-2-(benzylimino)-3-phenethylthiazolidin-4-one] | 1190 nM
O=C1/C(=C/c2ccccc2)S/C(=N\c2ccccc2)N1CCCc1ccccc1 [23_N_K, (2Z,5Z)-5-benzylidene-2-(phenylimino)-3-(3-phenylpropyl)thiazolidin-4-one] | 1120 nM
COc1ccc(C/N=C2\S/C(=C\c3ccccc3)C(=O)N2c2ccccc2)cc1 [23_Q_N, (2Z,5Z)-2-(4-methoxybenzylimino)-5-benzylidene-3-phenylthiazolidin-4-one] | 598 nM
O=C1/C(=C/c2ccccc2)S/C(=N\Cc2ccccc2Cl)N1c1ccccc1 [23_T_N, (2Z,5Z)-2-(2-chlorobenzylimino)-5-benzylidene-3-phenylthiazolidin-4-one] | 556 nM
Cc1ccc(/N=C2\S/C(=C\c3ccc4c(c3)OCCO4)C(=O)N2c2ccc(F)cc2)cc1 [24_A_B, (2Z,5Z)-5-(2,3-dihydro-1,4-benzodioxin-6-ylmethylene)-3-(4-fluorophenyl)-2-(p-tolylimino)thiazolidin-4-one] | 138 nM

Same assay, conditions: U937 cells, final 100 nM AEA with 0.5 nM [3H]-AEA, 15 min at 37° C.; read-out: AEA uptake IC50

SMILES | IC50
COCc1cccc(/C=C2\S/C(=N\Cc3ccccc3)N(c3ccccc3)C2=O)c1 [15_C_N, (2Z,5Z)-5-(3-(methoxymethyl)benzylidene)-2-(benzylimino)-3-phenylthiazolidin-4-] | 1690 nM
O=C1/C(=C/c2ccc(CO)cc2)S/C(=N\Cc2ccccc2)N1CCCc1ccccc1 [22_C_K, (2Z,5Z)-5-(4-(hydroxymethyl)benzylidene)-2-(benzylimino)-3-(3-phenylpropyl)thiazolidin-4-] | 1430 nM
O=C1/C(=C/c2ccc(CO)cc2)S/C(=N\Cc2ccccc2)N1CCc1ccccc1 [22_C_O, (2Z,5Z)-5-(4-(hydroxymethyl)benzylidene)-2-(benzylimino)-3-phenethylthiazolidin-4-] | 1200 nM
O=C1/C(=C/c2ccc(CO)cc2)S/C(=N\c2ccccc2)N1CCCc1ccccc1 [22_N_K, (2Z,5Z)-5-(4-(hydroxymethyl)benzylidene)-2-(phenylimino)-3-(3-phenylpropyl)thiazolidin-4-] | 861 nM
CCCCCCCCCCCCN1C(=O)/C(=C/c2ccc(CO)cc2)S/C1=N\c1ccc(F)cc1 [23_A_V, (2Z,5Z)-5-(4-(hydroxymethyl)benzylidene)-2-(4-fluorophenylimino)-3-dodecylthiazolidin-4-one] | 10500 nM
